The results in this text go back to PubChem BioAssay (NCI).

Common to all, as to test: NCI anticancer screen, dose series, 48 h
The test system of test [1] is A498 renal.
The subject of test [2] is HCT-15 colon.
Test [3] has as its system HT29 colon.
For test [4], the system named is RXF 393 renal.
Test [5] relates to SK-OV-3 ovarian.
The subject of test [6] is UACC-62 melanoma.

Each structure is given as a SMILES string.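 Cells were grown in 96-well plates and exposed to each compound for 48 hours at five concentrations; endpoints were interpolated linearly between bracketing concentrations, or set to the highest concentration if not reached. The concentration for 50% growth inhibition is given as GI50. TGI is the concentration that stops growth completely.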

Consider `C[C@@H](CO)[C@@H]1CCC=C2CC[C@]3(C)[C@H](CC[C@@H]4[C@@]5(C)CCCNC(C)(C)[C@@H]5CC[C@]43C)[C@H]21`, for which the GI50 in test [1] is 5.41 µM; in test [2], 1.49 µM; in test [3], 1.85 µM; in test [4] it was 2.39 µM; in test [5], 12.8 µM; in test [6], 1.73 µM. Moreover, the TGI was 23 µM in test [1]; 2.99 µM in test [2]; 4.49 µM in test [3]; 6.25 µM in test [4]; 30.8 µM in test [5]; 3.18 µM in test [6].
Consider `COc1ccc2c(c1)C(=O)c1c-2c(Nc2ccc(Cl)cc2)nc2ccccc12`, for which the GI50 in test [1] was 5.01 µM; in test [2] it was 42.3 µM; in test [3], 27.5 µM; in test [4] it was 2.06 µM; in test [6] it was 11.3 µM. Moreover, the TGI in test [1] was 18.9 µM; in test [2], more than 100 µM; in test [3], more than 100 µM; in test [4], 6.35 µM; in test [6], 26 µM.
Consider `N#Cc1c(N)nc(N2CCOCC2)c(C#N)c1-c1cccnc1`, for which the GI50 was 27.5 µM in test [1]; more than 100 µM in test [2]; more than 100 µM in test [3]; more than 100 µM in test [4]; 47.8 µM in test [5]; 43.4 µM in test [6]. The TGI was 80.8 µM in test [1]; more than 100 µM in test [2]; more than 100 µM in test [3]; more than 100 µM in test [4]; 99.6 µM in test [5]; more than 100 µM in test [6].
Take `Nc1nc(-c2ccccc2)nc2c1[n+]([O-])c1ccccc1[n+]2[O-]`: the TGI in test [1], in test [2], in test [3], in test [4], in test [5] and in test [6] was more than 100 µM each time.
In the case of `CCNC(=O)c1cc2c(-c3cc(C(C)(C)O)ccc3Oc3c(C)cc(F)cc3C)cn(C)c(=O)c2[nH]1`, the GI50 in test [1] was 0.898 µM; in test [2], 1.84 µM; in test [3], 1.12 µM; in test [4] it was 1.81 µM; in test [6], 0.17 µM. Moreover, the TGI in test [1] turned out to be 4.84 µM; in test [2], 14.2 µM; in test [3], 15 µM; in test [4], 5.2 µM; in test [6], 9.42 µM.
Turning to `c1cc(CNCCN2CCNCC2)ccn1`, the TGI in test [1], in test [2], in test [3], in test [4], in test [5] and in test [6] was more than 100 µM each time.
In the case of `O=C(NCc1ccc(Cn2c(=O)sn(-c3ccccc3)c2=O)cc1)OCc1ccc2c(Br)cc(Br)c(O)c2n1`, the GI50 in test [1] is 1.53 µM; in test [2] it was 0.222 µM; in test [3], 0.539 µM; in test [4] it was 0.546 µM; in test [5] it was 3.61 µM; in test [6], 1.03 µM. In addition, the TGI stood at 2.9 µM in test [1]; 0.572 µM in test [2]; 1.89 µM in test [3]; 1.83 µM in test [4]; 14 µM in test [5]; 2.24 µM in test [6].
`COc1cc(/C=C/C(=O)c2ccc(NC(=O)CN3CCN(c4cc5c(cc4F)c(=O)c(C(=O)O)cn5C4CC4)CC3)cc2)cc(OC)c1OC`: the GI50 in test [1] is 0.825 µM; in test [2] it was 0.575 µM; in test [3] it was 0.285 µM; in test [4], 0.273 µM; in test [5], 2.58 µM; in test [6], 0.887 µM. In addition, the TGI in test [1] is 2.83 µM; in test [2], more than 100 µM; in test [3], 1.02 µM; in test [4], 0.803 µM; in test [5] it was more than 29.8 µM; in test [6], 3.39 µM.
For the compound `CC1OC(OC2C(O[C@H]3CC[C@@]4(C)C(=CC[C@H]5[C@@H]6C[C@@H]7O[C@]8(CC[C@H](C)CN8)[C@@H](C)[C@@H]7[C@@]6(C)CC[C@@H]54)C3)OC(CO)C(O)C2OC2OC(CO)C(O)C(O)C2O)C(O)C(O)C1O` (some centres not stated), the TGI was determined as 42.9 µM in test [1]; 30.3 µM in test [2]; 31.6 µM in test [3]; 31.5 µM in test [4]; 30.5 µM in test [5]; 32.1 µM in test [6].
For `O=[N+]([O-])c1c(Br)sc(Br)c1[N+](=O)[O-]`, the GI50 in test [1] was 13.2 µM; in test [2] it was 1.59 µM; in test [3], 1.7 µM; in test [4], 1.47 µM; in test [5] it was 14 µM; in test [6], 1.87 µM. Further, the TGI in test [1] turned out to be 26 µM; in test [2] it was 4.48 µM; in test [3], 3.47 µM; in test [4], 2.85 µM; in test [5] it was 27 µM; in test [6], 4.68 µM.
`CC(=Nc1ccccc1)C1=C(O)C(Cc2ccccc2)NC1=O` (configuration not stated): the GI50 in test [1] was 0.0307 µM; in test [2], 0.0425 µM; in test [3] it was 0.0331 µM; in test [5], 0.0537 µM; in test [6] it was 0.0404 µM. In addition, the TGI was 0.259 µM in test [1]; more than 48.1 µM in test [2]; 0.151 µM in test [3]; more than 61.8 µM in test [5]; more than 100 µM in test [6].
Turning to `CCCCS(=O)(=O)CCC(N)C(=O)O` (configuration not stated), the TGI in test [1], in test [2], in test [3], in test [4], in test [5] and in test [6] was more than 100 µM throughout.
With `Cc1occc1C(=S)Nc1ccc(Cl)c(C(=O)OC(C)C2CC2)c1` (configuration not stated), the TGI in test [1] came out at 48.2 µM; in test [2], 41.2 µM; in test [3], 49 µM; in test [4], 39.4 µM; in test [5], 50.5 µM; in test [6], 71.1 µM.
As to `COc1cc2c(cc1C)NC(=O)/C2=C\c1cccc(Oc2ccccc2)c1`, the GI50 in test [1] is 10.5 µM; in test [2] it was 13.3 µM; in test [3] it was 12.1 µM; in test [5] it was 22.3 µM; in test [6], 12.5 µM. Further, the TGI in test [1] came out at 22.5 µM; in test [2] it was 26.2 µM; in test [3], 26.1 µM; in test [5], 40.9 µM; in test [6] it was 25.4 µM.
In the case of `COc1ccc(Cn2cc3c(c2-c2ccc(OC)cc2)CCc2cnoc2-3)cc1`, the GI50 in test [1] was 0.213 µM; in test [2], 0.506 µM; in test [3], 0.309 µM; in test [4], 0.322 µM; in test [5], 0.571 µM; in test [6] it was 0.547 µM. The TGI in test [1] was 0.749 µM; in test [2], more than 100 µM; in test [3], 1.24 µM; in test [5], more than 100 µM; in test [6] it was more than 100 µM.
On to `O=C(O)c1cccc(N=Nc2c(S(=O)(=O)O)ccc3c2C(=O)c2ccccc2C3=O)c1O`, for which the TGI in test [1], in test [2], in test [3], in test [4], in test [5] and in test [6] was more than 100 µM throughout.
As for `O=C1c2ccccc2C(=O)c2c1ccc(C1C(=O)c3ccccc3C1=O)c2-c1c(C2C(=O)c3ccccc3C2=O)ccc2c1C(=O)c1ccccc1C2=O`, the TGI in test [1], in test [2], in test [3], in test [4], in test [5] and in test [6] was more than 100 µM in each case.
As for `CN(CC(=O)N(Cc1ccc(C2CCCCC2)cc1)c1ccc(C(=O)O)c(O)c1)S(=O)(=O)c1c(F)c(F)c(F)c(F)c1F`, the GI50 in test [1] is 13.2 µM; in test [2] it was 2.08 µM; in test [3], 2.05 µM; in test [4], 1.89 µM; in test [5], 16.5 µM; in test [6] it was 3.18 µM. Further, the TGI in test [1] came out at 26.1 µM; in test [2], 4.43 µM; in test [3] it was 4.2 µM; in test [4], 3.76 µM; in test [5], 31.1 µM; in test [6] it was 12.1 µM.
`CN(C)c1ccc(Nc2cc(-c3cccc(OC(F)(F)F)c3)nc3ccc(N4CCCC4)cc23)cc1`: the GI50 in test [1] is 2.47 µM; in test [2], 1.75 µM; in test [3], 2.18 µM; in test [4], 1.66 µM; in test [5], 13.1 µM; in test [6], 1.8 µM. In addition, the TGI in test [1] was found to be 10.6 µM; in test [2] it was 3.53 µM; in test [3], 4.59 µM; in test [4], 3.47 µM; in test [5] it was 25.7 µM; in test [6], 3.29 µM.
With `COc1cc2c(cc1Nc1nc(Nc3ccsc3C(N)=O)c3cc[nH]c3n1)N(C(=O)CN(C)C)CCC2(C)C`, the GI50 is 1.18 µM in test [1]; 1.84 µM in test [2]; less than 0.0025 µM in test [3]; 1.67 µM in test [4]; 3.64 µM in test [5]; 1.77 µM in test [6]. Besides, the TGI worked out at 4.97 µM in test [1]; 5.62 µM in test [2]; 2.53 µM in test [3]; 5.09 µM in test [4]; 6.94 µM in test [5]; 5.44 µM in test [6].
As for `CN1c2ccccc2C(C)(C)C12C=Cc1cc(O)ccc1O2` (configuration not stated), the GI50 in test [1] is 2.39 µM; in test [2], 3.41 µM; in test [3], 3.33 µM; in test [5], 3.41 µM; in test [6], 2.56 µM. Also, the TGI in test [1] was determined as 6.3 µM; in test [2], 14 µM; in test [3], 11.6 µM; in test [5] it was 8.81 µM; in test [6], 11.5 µM.
For the compound `Cn1ccnc1C(=O)/C=C/c1ccccc1`, the GI50 was 5.05 µM in test [1]; 2.77 µM in test [2]; 3.31 µM in test [3]; 4.55 µM in test [5]; 7.46 µM in test [6]. The TGI in test [1] came out at 17 µM; in test [2], 13.8 µM; in test [3], 11.2 µM; in test [5], 35.9 µM; in test [6], 21.3 µM.
In the case of `Cc1cccc2c(=O)c3c(sc12)c(NCCNCCO)nc1ccccc13`, the GI50 in test [1] was 1.67 µM; in test [2], 1.46 µM; in test [3], 1.4 µM; in test [4], 1.43 µM; in test [6], 1.63 µM. The TGI in test [1] was found to be 3.7 µM; in test [2] it was 2.89 µM; in test [3] it was 3.13 µM; in test [4], 2.77 µM; in test [6], 3.07 µM.
With `CC(C)CCN=C(N)c1ccc(N2CCN(c3ccc(C(N)=NCCC(C)C)cc3)CC2)cc1`, the GI50 in test [2] was 37.6 µM; in test [3] it was 6.51 µM; in test [4], 7.89 µM; in test [5] it was 4.45 µM; in test [6], 16.8 µM. For the same compound, the TGI is more than 100 µM in test [2]; 30.2 µM in test [3]; 44.9 µM in test [4]; 25.5 µM in test [5]; 33.8 µM in test [6].
Turning to `Fc1ccc(Nc2nc3nonc3nc2Nc2ccc(F)cc2)cc1`, the GI50 in test [1] is 0.163 µM; in test [2], 0.384 µM; in test [3], 0.482 µM; in test [5], 0.244 µM; in test [6], 0.283 µM. Besides, the TGI was 0.66 µM in test [1]; 11.7 µM in test [2]; 10.7 µM in test [3]; 0.852 µM in test [5]; 3.22 µM in test [6].
Regarding `COc1cc(Nc2ccnc(NCCCNc3ccnc4cc(Cl)ccc34)n2)cc(OC)c1`, the GI50 in test [1] is 1 µM; in test [2], 1.51 µM; in test [3], 1.33 µM; in test [5], 2.42 µM; in test [6], 1.67 µM. The TGI in test [1] was found to be 2.81 µM; in test [2] it was 3.09 µM; in test [3], 3.62 µM; in test [5] it was 6.08 µM; in test [6] it was 3.13 µM.
Take `CCC1CCc2nc3sc(C(=O)Nc4cccc(F)c4)c(N)c3cc2C1` (configuration not stated): the GI50 in test [1] is 0.602 µM; in test [2], 0.428 µM; in test [5], more than 100 µM; in test [6], 0.376 µM. Further, the TGI in test [1], in test [2], in test [5] and in test [6] was more than 100 µM in each case.
On to `COC(=O)CCCC(=O)O`, for which the TGI in test [1], in test [2], in test [3], in test [4] and in test [6] was more than 100 µM in each case.
